Experimental findings from publication PMC6018746, “Activation of the p53-MDM4 regulatory axis defines the anti-tumour response to PRMT5 inhibition through its role in regulating cellular splicing” (Scientific Reports, 2018) are described below.

For orientation: EC50 means the midpoint of the concentration-response curve.

In this experiment the test system is SDMA in a panel of breast and lymphoma cell lines. Kind of experiment: SDMA EC50 in breast and lymphoma cell line panel. Format: cell-based. To be noted: Homo sapiens; all cell lines of the panel; read-out: SDMA EC50 range. The method, then:
SDMA ELISA was performed on homogenized cells and frozen tumour lysates. Fluorescence intensity generated by addition of Luminata Forte (Millipore #WBKUF0500) substrate was measured on a PerkinElmer Envision plate reader.
Cells were seeded in optical bottom cell culture plates and targets were probed with fluorescent secondary antibodies and DAPI stain. Quantification of nuclear SDMA and SMD3 levels was performed with a Molecular Devices […] high-content fluorescence imager and image analysis was performed with ImageExpress software.

For the molecule `CC(=O)N1CCC(Nc2cc(C(=O)NC[C@H](O)CN3CCc4ccccc4C3)ncn2)CC1` [GSK3326595], the concentration for a half-maximal effect (EC50) lay in the range of 2 to 160 nM.
